# Patent US11072602B2, “Antidiabetic heterocyclic compounds” (Merck Sharp & Dohme Corp., priority 2016, dated 2021)
# Molecular target: T1, human GPR40 (Homo sapiens, UniProt O14842)
# T1 construct: expressed in transfected cells
# Assay: Inositol Phosphate Turnover (IP1) Assay
# Type: cell-based
# Details: HEK cells stably expressing human GPR40, 7500 cells per well, CisBio IP-One kit
# Description: Human GPR40 stable cell-lines were generated in HEK cells. The expression plasmids were transfected using lipofectamine (Life Technologies) following manufacturer's instructions. Stable cell-lines were generated following drug selection and single cell cloning.
# The assay was performed in 384-well format. HEK cells stably expressing human GPR40 were plated at 7500 cells per well in growth medium (DMEM/10% fetal calf serum). Cell plates were then incubated 16 hours at 37 degrees in a 5% CO2 incubator. Measurement of Inositol Phosphate Turnover (IP1) was performed using the CisBio IP-One kit (Part number 62IPAPEB). After the 16 hour incubation, the growth media was removed by centrifugation using the BlueWasher (AusWasher GUI Ver. v1.0.1.8) Protocol #21-“Light Dry” and 10 ul of stimulation buffer (prepared as described in the kit) was added to each well. In a separate plate, compounds were diluted in DMSO (200-fold over the final concentration in the assay well) and 50 nl was acoustically transferred to the appropriate well in the assay cell plate. The plates were then incubated for 60 minutes at 37 degrees in a 5% CO2 incubator. 10 ul of detection buffer (also prepared as described in the IP-One kit) was added to each well and the plates were incubated at room temperature for 60 minutes in the dark. The plates were then read in a Perkin Elmer EnVision or equivalent reader able to measure FRET. Fluorescent ratio of emission at 665 and 620 nm was then converted to IP1 concentration by back calculating from an IP1 standard curve prepared at the time of the assay. Data was normalized to % activity using a reference compound and EC50s determined using a standard 4-parameter fit.
# T1 sequence (O14842 whole entry): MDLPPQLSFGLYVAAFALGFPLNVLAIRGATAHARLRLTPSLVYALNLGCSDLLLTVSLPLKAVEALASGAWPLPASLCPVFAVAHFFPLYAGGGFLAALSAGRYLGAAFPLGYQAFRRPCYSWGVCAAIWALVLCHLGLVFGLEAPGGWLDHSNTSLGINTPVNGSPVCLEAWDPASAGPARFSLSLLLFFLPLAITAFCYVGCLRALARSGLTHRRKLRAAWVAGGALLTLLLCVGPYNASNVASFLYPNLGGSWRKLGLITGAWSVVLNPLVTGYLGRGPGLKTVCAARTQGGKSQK
row,Structure (SMILES),EC50 [nM]
1,"C[C@H](C(=O)O)[C@H](c1ccc2c(c1)OC(CC1CCN([C@H](C)c3cc(C(F)(F)F)ccc3C(F)(F)F)CC1)CC2)C1CC1 (mixture of isomers) [Example 9, (2S,3R)-3-((RS)-2-((1-((R)-1-(2,5-bis(trifluoromethyl)phenyl)ethyl)piperidin-4-yl)-methyl)chroman-7-yl)-3-cyclopropyl-2-methylpropanoic Acid]",63.7
2,"CC(c1cc(F)ccc1C(F)(F)F)N1CC2CC1CC2C1CCc2ccc([C@H](C3CC3)[C@H](C)C(=O)O)cc2O1 (mixture of isomers) [Example 39, (2S,3R)-3-cyclopropyl-3-((R or S)-2-((R or S,R or S)-2-((RS)-1-(5-fluoro-2-(trifluoromethyl)-phenyl)ethyl)-2-azabicyclo-[2.2.1]heptan-5-yl)chroman-7-yl)-2-methylpropanoic acid]",44.1
3,"C[C@H](C(=O)O)[C@H](c1ccc2c(c1)OC(CCN(C)Cc1cc(C(F)(F)F)ccc1C(F)(F)F)CC2)C1CC1 (mixture of isomers) [Example 41, (2S,3R)-3-(2-(2-((2,5-bis-(trifluoromethyl)benzyl)(methyl)amino)ethyl)chroman-7-yl)-3-cyclopropyl-2-methylpropanic acid]",8.72
4,"C[C@H](C(=O)O)[C@H](c1ccc2c(c1)OC(CC1CCN([C@@H](C)c3cc(C(F)(F)F)ccc3C(F)(F)F)CC1)CC2)C1CC1 (mixture of isomers) [Example 12, (2S,3R)-3-((RS)-2-((1-((S)-1-(2,5-bis(trifluoro-methyl)phenyl)ethyl)piperi-din-4-yl)methyl)-chroman-7-yl)-3-cyclopropyl-2-methyl-propanoic acid]",22.3
5,"C[C@H](C(=O)O)[C@H](c1ccc2c(c1)OC(C1[C@@H]3CC[C@H]1CN([C@H](C)c1cc(C(F)(F)F)ccc1C(F)(F)F)C3)CC2)C1CC1 (mixture of isomers) [Example 22, (2S,3R)-3-(2-((1R,5S)-3-((R)-1-(2,5-bis(trifluoromethyl)phenyl)ethyl)-3-azabicyclo[3.2.1]octan-8-yl)chroman-7-yl)-3-cyclopropyl-2-methylpropanoic Acid]",45.6
6,"C[C@H](C(=O)O)[C@H](c1ccc2c(c1)OC(C1[C@@H]3CC[C@H]1CN([C@H](C)c1cc(C(F)(F)F)ccc1C(F)(F)F)C3)CC2)C1CC1 (mixture of isomers) [Example 23, (2S,3R)-3-(2-((1R,5S)-3-((R)-1-(2,5-bis(trifluoromethyl)phenyl)ethyl)-3-azabicyclo[3.2.1]octan-8-yl)chroman-7-yl)-3-cyclopropyl-2-methylpropanoic Acid]",49.8
7,"C[C@H](C(=O)O)[C@H](c1ccc2c(c1)OC(C1CC3CCCC(C1)N3[C@H](C)c1cc(C(F)(F)F)ccc1C(F)(F)F)CC2)C1CC1 (mixture of isomers) [Example 32, (2S,3R)-3-((RS)-2-((1R,3RS,5S)-9-((R)-1-(2,5-bis(trifluoromethyl)phenyl)ethyl)-9-azabicyclo[3.3.1]nonan-3-yl)chroman-7-yl)-3-cyclopropyl-2-methylpropanoic Acid]",171
8,"C[C@H](C(=O)O)[C@H](c1ccc2c(c1)OC(C1CC3CCCC(C1)N3[C@@H](C)c1cc(C(F)(F)F)ccc1C(F)(F)F)CC2)C1CC1 (mixture of isomers) [Example 33, (2S,3R)-3-((RS)-2-((1R,3RS,5S)-9-((S)-1-(2,5-bis(trifluoromethyl)-phenyl)ethyl)-9-aza-bicyclo[3.3.1]-nonan-3-yl)chroman-7-yl)-3-cyclopropyl-2-methyl-propanoic acid]",750
9,"C[C@H](C(=O)O)[C@H](c1ccc2c(c1)OC(C1[C@@H]3COC[C@H]1CN([C@@H](C)c1cc(F)ccc1C(F)(F)F)C3)CC2)C1CC1 (single isomer, unassigned) [Example 7]",11.2
10,"C[C@H](C(=O)O)[C@H](c1ccc2c(c1)OC(C1[C@@H]3COC[C@H]1CN([C@@H](C)c1cc(F)ccc1C(F)(F)F)C3)CC2)C1CC1 (single isomer, unassigned) [Example 8]",11.2
